From PubChem BioAssay (NCI)
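Exposure lasted 48 hours, with cells grown in 96-well plates and compounds tested at five concentrations. GI50 marks 50% less growth. Definition used: TGI = concentration required for complete inhibition of growth.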

Key:
Assay in all cases: NCI anticancer screen, dose series, 48 h
DMS 114 small cell lung = test system: DMS 114 small cell lung
KM20L2 colon = test system: KM20L2 colon
RXF-631 renal = test system: RXF-631 renal
T-47D breast = test system: T-47D breast
HS 578T breast = test system: HS 578T breast
MDA-N = test system: MDA-N
DU-145 prostate = test system: DU-145 prostate
BT-549 breast = test system: BT-549 breast

Compound	TGI (DMS 114 small cell lung) [µM]	TGI (KM20L2 colon) [µM]	TGI (RXF-631 renal) [µM]	other results
CC1(C)COC(c2ccc(C(F)(F)F)cc2C(O)c2ccc3ccccc3c2)=N1 (configuration not stated)	> 100	> 100	> 100	GI50 (DMS 114 small cell lung): > 100 µM; GI50 (KM20L2 colon): > 100 µM
CN(CC(=O)O)S(=O)(=O)c1ccc2ccccc2c1	–	> 100	> 100	–
Cc1nc2c(nc1C)C(=O)c1ccccc1C2=O	> 46	36.3	46.1	TGI (T-47D breast): 13.8 µM; TGI (HS 578T breast): 6.47 µM; TGI (MDA-N): 0.562 µM; TGI (DU-145 prostate): 2.72 µM; TGI (BT-549 breast): 3.15 µM
C/C(CCn1[nH]c(=O)ccc1=O)=N\O	> 100	> 100	> 100	–
O=C1C2=C(SCCS2)C(=O)c2ccccc21	2.09	3.52	3.28	–
CC(=O)OC1COC(n2c(=S)n(-c3ccc(C)cc3)c(=O)c3ccccc32)C(OC(C)=O)C1OC(C)=O (configuration not stated)	> 100	> 100	> 100	–
Nc1ccc(C(=O)N/C(=C\c2ccc3c(c2)OCO3)c2nc3[nH]c(=S)[nH]c(=O)c3[nH]2)cc1	–	> 100	> 100	–
O=C1NC2(CCCCC2)C2CCCCC(O)C12 (configuration not stated)	> 100	> 100	> 100	–
COc1ccc2c(c1)C1(C=N2)CCN(C(C)=O)CC1	> 100	> 100	> 100	–
CCOC(=O)c1ncn2c1[nH]c(=S)c1ccccc12	> 100	> 100	> 100	–
O=[S@@]1Nc2ccc(Br)cc2S1	–	> 100	> 100	–
CCOC(=O)COc1cccc2c1C(=O)CCO2	> 100	> 100	> 100	–
COc1ccc2nc3cc(Cl)ccc3c(Sc3ccccc3[N+](=O)[O-])c2c1	> 100	> 100	> 100	–
COc1cccc(NC(=O)CC(=O)n2nc(C)c(N=Nc3ccccc3)c2C)c1	> 100	–	> 100	–
CC(=O)C(CN(C(C)C)C(C)C)C(c1ccccc1)c1c(O)c2ccccc2oc1=O (configuration not stated)	> 100	> 100	> 100	–
CC1=C(C(=O)Nc2ccccc2C)C(c2ccco2)C(C(=O)Nc2ccccc2C)=C(C)N1C	> 100	–	> 100	–
CC1(C)OC(=O)C(=Cc2ccc(O)cc2)C(=O)O1	> 100	> 100	–	–
